7 compounds from PubChem BioAssay AID540338 (Southern Research Specialized Biocontainment Screening …, 2011) can be followed below.

The experiment has as its system HEp-2 viability, luminescence (CellTiter-Glo). Briefly: viability loss in uninfected HEp-2 cells – cell-based, synthesized compounds, set 12, cytotoxicity control for RSV antiviral project, dose response (AID 540338).

SMILES strings stand for the structures. The source made the active and inactive calls.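 Rule for the calls: active = cell viability below 70% of untreated cell signal at any tested dose; inactive = the rest.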

In general, CC50 refers to the concentration giving 50% cytotoxicity. Regarding `COCCCNC(=O)c1ccc(Cn2c(=O)c3ccccc3n(Cc3ccccn3)c2=O)cc1`, the CC50 was 16 µM.

Turning to `COCCCNC(=O)c1ccc(Cn2c(=O)c3ccccc3n(Cc3ccc(C)cc3)c2=O)cc1`, the CC50 is 69 µM.

With `COCCCNC(=O)c1ccc(Cn2c(=O)c3ccccc3n(CCc3ccc(C)cc3)c2=O)cc1`, the half-maximal cytotoxic concentration (CC50) is less than 1.6 µM.

For `COCCCNC(=O)c1ccc(Cn2c(=O)c3ccccc3n(CCc3ccc(C(F)(F)F)cc3)c2=O)cc1`, the CC50 was 116 µM.

Regarding `COCCCNC(=O)c1ccc(Cn2c(=O)c3ccccc3n(Cc3cccnc3)c2=O)cc1`, the CC50 is 8 µM.

With `COCCCNC(=O)c1ccc(Cn2c(=O)c3ccccc3n(CCc3ccc(Br)cc3)c2=O)cc1`, the CC50 is less than 1.6 µM.

For the compound `COCCCNC(=O)c1ccc(Cn2c(=O)c3ccccc3n(CC3CCCCC3)c2=O)cc1`, the CC50 is > 200 µM (inactive).
